According to US9988380B2, “Quorum sensing inhibitors” (priority 2013, dated 2018):

How the values were obtained:
rhlA-gfp(ASV) expression = assay: Inhibition of the Rhl QS system, rhlA-gfp(ASV) reporter in PAO1 wild-type and lasR mutant; assay type: cell-based, P. aeruginosa
Protocol: (§1) Inhibition of the Rhl and PQS QS systems in wild-type PAO1 and PAO1 lasR mutant. Wild-type P. aeruginosa PAO1 strains harboring either the rhlA-gfp(ASV) reporter or the pqsA-gfp(ASV) reporter, and a P. aeruginosa PAO1 lasR mutant harboring either the rhlA-gfp(ASV) reporter or the pqsA-gfp(ASV) reporter were used for this experiment (Refer to FIG. 11 for strain information). Overnight cultures of these four strains were diluted 100-fold in ABTGC media within 96-well microtitre plates to a final volume of 200 μL per well. Each of the five QSIs was added in triplicate to a final concentration of 50 μM. 0.5% DMSO was used as a negative control. The microtitre plate was incubated at 37° C. in a Tecan Infinite 200 Pro plate reader where GFP and OD600 readings were measured at 15 min intervals.
(§2) Effect of QSIs on Rhl and Pqs Quorum-Sensing Systems. In order to address the problem of the specificity of present compounds, the five identified QSI compounds were tested to see if they had any effect on the rhl and pqs systems. The five QSIs were tested against a PAO1 wild-type and a PAO1 lasR mutant harboring either the rhlA-gfp (ASV) bioreporter or the pqsA-gfp (ASV) bioreporter. The rhlA system is dependent on the RhlR/I system. By doing so, we were able to determine if a QSI is able to inhibit the other two QS systems (i.e. rhl and pqs) in a lasR-dependent/independent manner (FIG. 8).

[1] = system: LasR-controlled GFP expression in P. aeruginosa PAO1 lasB-gfp(ASV) strain; assay: P. aeruginosa QS inhibition assay with lasB-gfp(ASV) reporter strain; assay type: cell-based, Pseudomonas aeruginosa; conditions: for effect on cell growth / inhibition of LasR-controlled GFP expression: P. aeruginosa lasB-gfp(ASV) strain; for effect on cell growth: OD600; for inhibition of LasR-controlled GFP expression: 0.78125-50 μM
Protocol: P. aeruginosa QS inhibition assays. Test compounds were dissolved in 100% DMSO and mixed with ABTGC media, after which they were added to the first column of wells of a 96-well microtitre plate (Nunc) to give a final concentration of 100 μM in a final volume of 200 μl. 100 μL of ABTGC media was then added to the remaining wells in the plate and serial two-fold dilutions of the inhibitors were done by adding 100 μL of the preceding inhibitor-containing well to the subsequent one. The final column was left without inhibitor as a control. Next, an overnight culture of P. aeruginosa lasB-gfp(ASV) strain, grown in LB medium at 37° C. with shaking, was diluted to an optical density (OD) at 600 nm of 0.2, and 100 μl of bacterial suspension was added to each well of the microtitre plate. […] The microtitre plate was incubated at 37° C. in a Tecan Infinite 200 Pro plate reader (Tecan Group Ltd., Männedorf, Switzerland). GFP fluorescence (excitation at 485 nm, emission at 535 nm) and cell density (OD600) measurements were collected at 15 min intervals for at least 14 h. The P. aeruginosa Rhl and Pqs inhibition assays were performed in a similar manner to the LasR inhibition assay.
Inhibition Assay with the P. aeruginosa lasB-gfp(ASV) strain. In the preliminary screen, the 22 selected QSI candidates were screened for their ability to inhibit QS-controlled green fluorescent protein (GFP) expression in the P. aeruginosa lasB-gfp(ASV) strain. Elastase (encoded by the lasB gene) is a virulence factor that is controlled by LasR and therefore a good indicator for LasR activity. […] For ease of identification, each compound was designated a short compound identification code based on its well position in the shipment in place of its standard IUPAC name.
The dose-response curves of these 5 QSI candidates when incubated with the P. aeruginosa PAO1 lasB-gfp(ASV) strain are shown in FIG. 3. GFP expression, which was measured in relative fluorescence units, was normalized by dividing the GFP value by the corresponding OD600 value measured at that time-point. ‘Control’ refers to the PAO1 strain grown without the presence of QSI, and as expected, it had the highest GFP per OD values. For these five compounds, dose-dependent inhibition of lasB-gfp expression was observed, i.e. the higher the concentration of QSI that was present, the greater the inhibition of gfp expression.
IC50 Value Comparisons of the Five QSI Candidates. The slope of the curve for each QSI was calculated based on its respective dose-response curves (from FIG. 3) and plotted against the log inhibitor concentration. The slope is indicative of the biosynthesis rate of GFP due to AHL induction. The half maximal inhibitory concentrations (IC50) of the five QSI candidates were calculated using the Graphpad Prism 6 software package (GraphPad Software Inc., CA, USA).

pqsA-gfp(ASV) expression = assay: Inhibition of the PQS QS system, pqsA-gfp(ASV) reporter in PAO1 wild-type and lasR mutant; assay type: cell-based, P. aeruginosa
Protocol: as §1, §2

protease IV = conditions: cited from earlier work
elastase (lasB; PA3724) = conditions: cited from earlier work

SMILES	effect on cell growth [1]	inhibition of LasR-controlled GFP expression [1]	reduction of expression of elastase (elastase (lasB; PA3724)) [fold]	further results
NC(Cc1cccc(F)c1)C(=O)O (racemic) [Compound F1, 2-amino-3-(3-fluorophenyl)propanoic acid]	without affecting cell growth	inhibit LasR-controlled GFP expression in a dose-dependent manner		inhibition of rhlA-gfp expression (rhlA-gfp(ASV) expression; PAO1 lasR mutant, 50 μM QSI): 63.1%; inhibition of rhlA-gfp expression (rhlA-gfp(ASV) expression; wild-type PAO1, 50 μM QSI): 61.7%; inhibition of pqsA-gfp expression (pqsA-gfp(ASV) expression; PAO1 lasR mutant, 50 μM QSI): 39.4%; inhibition of pqsA-gfp expression (pqsA-gfp(ASV) expression; wild-type PAO1, 50 μM QSI): 25.4%
NC(C(=O)O)C(O)c1ccccc1 (racemic) [Compound H1, 2-amino-3-hydroxy-3-phenylpropanoic acid]	without affecting cell growth	inhibit LasR-controlled GFP expression in a dose-dependent manner		
O=[N+]([O-])c1cc[n+]([O-])cc1 [Compound 4-NPO, 4-nitropyridine-N-oxide]			−22.6	reduction of expression of protease IV (protease IV): −20.7 fold
O=c1[nH]cnc2[nH]nnc12 [Compound C1, 6-hydro-3H-1,2,3-triazolo[5,4-d]pyrimidin-7-one]	without affecting cell growth	inhibit LasR-controlled GFP expression in a dose-dependent manner		IC50 of lasB-gfp expression, range in words ([1]; P. aeruginosa PAO1 lasB-gfp(ASV)): high nanomolar range
O=C1C=C2C(=CCOC2O)O1 (stereo not drawn) [patulin]			−7	
C=C(C)C(=O)C(=CC(=O)O)OC [penicillic acid]			−12	
